Measurements: paper PMC5464768, “ER retention is imposed by COPII protein sorting and attenuated by 4-phenylbutyrate” (eLife, 2017)
Where two headings read alike, the source gives them in different places.

Legend:
human Sec24a = molecular target: T1, human Sec24a (Homo sapiens, UniProt O95486); test: Fluorescence polarization competition binding assay (displacement of 5-Fam-[…]); settings: fluorescence polarization at 22°C; 5 µM probe, 22 µM Sec24a; ± standard error of fit; read-out: IC50, displacement of fluorescent probe 5-Fam-[…] from Sec24a
T1 construct: His6 (TEV-cleavable) (N, cleaved yes); made in house; host or cells: High Five insect cells (baculovirus)
T1 sequence (O95486 341-1093): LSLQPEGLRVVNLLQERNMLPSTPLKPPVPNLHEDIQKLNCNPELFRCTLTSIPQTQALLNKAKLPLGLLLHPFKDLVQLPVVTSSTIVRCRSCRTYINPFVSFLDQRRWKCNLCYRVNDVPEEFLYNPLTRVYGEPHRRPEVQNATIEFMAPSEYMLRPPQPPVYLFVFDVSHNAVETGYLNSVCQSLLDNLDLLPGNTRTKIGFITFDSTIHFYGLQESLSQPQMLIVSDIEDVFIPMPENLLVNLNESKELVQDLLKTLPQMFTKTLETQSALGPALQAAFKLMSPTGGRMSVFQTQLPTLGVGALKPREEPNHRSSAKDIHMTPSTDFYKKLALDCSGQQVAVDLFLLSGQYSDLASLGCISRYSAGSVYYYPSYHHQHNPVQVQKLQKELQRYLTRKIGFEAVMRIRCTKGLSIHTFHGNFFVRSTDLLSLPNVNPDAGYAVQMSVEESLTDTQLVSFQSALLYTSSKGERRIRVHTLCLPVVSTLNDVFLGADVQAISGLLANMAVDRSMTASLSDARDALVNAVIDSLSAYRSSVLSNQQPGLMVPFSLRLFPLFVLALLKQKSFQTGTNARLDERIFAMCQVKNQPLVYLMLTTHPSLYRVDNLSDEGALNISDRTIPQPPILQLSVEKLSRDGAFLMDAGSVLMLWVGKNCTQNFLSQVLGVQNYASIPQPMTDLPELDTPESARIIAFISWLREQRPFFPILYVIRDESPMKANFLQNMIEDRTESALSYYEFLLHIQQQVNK

[1] = tested on: CHO cells expressing G544V-mutant LDL receptor; test: Restoration of trafficking of mutant LDL receptor in cells (immunoblot for 160 kDa mature glycosylated form); type: cell-based; settings: for EC50: ± standard error of fit
Protocol: (§1) T-Rex-CHO-K1 cloned cell lines expressing wild-type and mutant LDL receptor were cultured as described ([Sørensen et al., 2006]; [Tveten et al., 2007]), and according to the manufacturer’s protocols (Thermo Fisher Scientific; CHO cell Lot No. 1610593). The expression in CHO cells of G544V-mutant or wild-type LDL receptor protein was induced with 1 µg/mL tetracycline for 24 hr prior to experiments with 4-PBA or 4-PBA analogs ([Tveten et al., 2007]). To compare pharmacological potency of 4-PBA analogs, cells were incubated with the compounds for 2 hr at 37°C in 12-well 22 mm plates (Corning Costar #3513). For experiments concerning the extracellular secretion of GRP94 (Figure 5), the incubations with 4-PBA were extended to 24 hr. Cells were broken in lysis buffer (1% (v/v) Triton X-100, 150 mM NaCl, 10 mM EDTA, 50 mM Tris-HCl pH 7.5) and cleared by centrifugation (15,000 g for 15 min). Cellular protein concentration was measured using ‘Protein Assay Kit II’ (Bio-Rad) with bovine serum albumin as standard. Lysates were added to Laemmli sample buffer (New England BioLabs) containing 130 mM dithiothreitol and heated for 15 min at 55°C. Cell medium (containing secreted proteins) was added to Laemmli sample buffer containing 5% β-mercaptoethanol and boiled for 5 min. Samples were run on 4–15% Tris/HCl Criterion gels (Bio-Rad) followed by immunoblotting.
Proteins were electrotransferred from SDS-PAGE gels onto Immun-Blot low fluorescence PVDF membrane (Bio-Rad) and blocked using TBST (5% BioRad Blocker in 25 mM Tris-HCl pH 7.4, 150 mM NaCl, 0.05% (v/v) Tween 20). Membranes were incubated at 4°C overnight with primary antibodies in TBST followed by incubation with horseradish peroxidase-conjugated secondary antibodies. Chemiluminescence signals were generated by incubation with ECL Prime Western Blotting detection reagent (GE Healthcare #RPN2236). […] Chemiluminescence signals were detected using a ChemiDoc MP Imaging System and acquired with Image Lab 5.0 software (Bio-Rad). Quantification of protein band intensities was performed using Image Gauge software Version 4.1 (Fujifilm), including background correction of the raw image data.
Chemiluminescence signals from western blots for the glycosylated (160 kDa) form of G544V-mutant LDL receptor were quantified as a percentage of total LDL receptor protein (glycosylated + unglycosylated bands). Data at high concentrations of 4-PBA analogs, which show inhibition of LDL receptor trafficking, were omitted. Data from individual experiments were normalized (to obtain maximal response = 100%), so that data from replicate experiments (n = 4–5) could be averaged. Logistic fitting to the dose-response data was carried out with program Ultrafit (Elsevier Biosoft).

B site of Sec24a = molecular target: T2, B site of Sec24a (Homo sapiens, UniProt O95486); test: X-ray crystallography of ligand-soaked Sec23a/Sec24a•Sec22b crystals; type: binding; settings: crystals soaked with 4-PBA at 1, 15 and 50 mM or with 5 mM ΦC signal peptide
T2 construct: His6 (TEV-cleavable) (N, cleaved yes); made in house; host or cells: High Five insect cells (Sec23a/Sec24a); E. coli (Sec22b)
T2 sequence (Q15436 whole entry partner, one chain of several): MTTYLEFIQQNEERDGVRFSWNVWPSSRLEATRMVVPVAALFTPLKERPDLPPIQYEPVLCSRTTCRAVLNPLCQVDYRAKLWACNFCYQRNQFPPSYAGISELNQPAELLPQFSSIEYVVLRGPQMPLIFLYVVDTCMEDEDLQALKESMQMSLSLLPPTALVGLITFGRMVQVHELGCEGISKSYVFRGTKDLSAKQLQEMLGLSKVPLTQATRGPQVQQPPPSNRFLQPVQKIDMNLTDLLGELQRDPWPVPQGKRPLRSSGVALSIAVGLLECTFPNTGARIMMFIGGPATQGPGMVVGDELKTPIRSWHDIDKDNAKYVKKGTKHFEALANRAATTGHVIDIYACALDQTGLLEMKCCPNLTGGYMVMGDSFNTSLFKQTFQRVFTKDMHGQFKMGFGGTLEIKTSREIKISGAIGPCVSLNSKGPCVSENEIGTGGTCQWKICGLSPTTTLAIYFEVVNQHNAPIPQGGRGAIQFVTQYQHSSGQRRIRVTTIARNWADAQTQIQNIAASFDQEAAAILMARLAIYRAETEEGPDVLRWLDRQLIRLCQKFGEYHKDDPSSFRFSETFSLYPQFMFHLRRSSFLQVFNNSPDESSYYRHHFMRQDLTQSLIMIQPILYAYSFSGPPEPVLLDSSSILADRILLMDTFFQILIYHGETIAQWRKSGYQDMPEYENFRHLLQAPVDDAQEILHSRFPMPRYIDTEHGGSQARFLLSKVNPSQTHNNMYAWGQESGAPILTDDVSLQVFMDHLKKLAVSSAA
T2 sequence (O75396 1-195 partner limits assumed, one chain of several): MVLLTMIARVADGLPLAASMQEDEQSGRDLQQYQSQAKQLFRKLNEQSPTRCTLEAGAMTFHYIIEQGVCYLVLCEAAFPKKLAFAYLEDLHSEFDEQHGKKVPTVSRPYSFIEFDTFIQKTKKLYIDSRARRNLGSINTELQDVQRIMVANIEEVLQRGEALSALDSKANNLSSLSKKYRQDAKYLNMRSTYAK
Protocol: The Sec23a/Sec24a•Sec22b complex was crystallized as described previously ([Mancias and Goldberg, 2007]) from a solution comprising 10% (w/v) PEG 4000, 500 mM Na acetate and 50 mM Tris-HCl pH 7.9. Since acetate ions compete with ligand binding at the B site, crystals were transferred into a soaking buffer of 10% (w/v) PEG 4000, 600 mM NaCl, 50 mM Tris-HCl buffer, pH 7.9. (Two acetate ions are observed bound to B-site arginine residues in electron density maps calculated from Sec23a/Sec24a•Sec22b crystallographic data, PDB 2NUT). To this was added 4-PBA (0–50 mM) or 5 mM ΦC signal peptide, and ligand soaking proceeded for five hours at 22°C. Crystals were then transferred to an equivalent ligand-containing buffer with additional 24% ethylene glycol cryo-protectant, and were flash frozen in liquid nitrogen. Crystals treated in this manner diffracted synchrotron X-rays to 2.5–2.8 Å resolution.
X-ray diffraction data were collected at 0.979 Å wavelength on beamline ID-24C or ID-24E of the Advanced Photon Source, Argonne National Laboratory. Data were processed with the program HKL2000 ([Otwinowski and Minor, 1997]; Tables 1 and 2). Structure refinement was carried out using Phenix ([Adams et al., 2010]), initially by rigid-body improvement, followed by positional refinement, based on the published coordinates of Sec23a/Sec24a•Sec22b (PDB 2NUT; [Mancias and Goldberg, 2007]). […]

[2] = molecular target: T3, COPII coat (Sec23a/24d) packaging of p24 proteins and ERGIC-53 (Homo sapiens, UniProt O94855); test: In vitro COPII vesicle budding assay with permeabilized CHO (T-Rex-CHO-K1) cells; type: biochemical, H. sapiens; settings: 10 mM 4-PBA; corrected for budding yield
T3 construct: Sec23a/Sec24d (full-length protein) for COPII budding assays; His6 (TEV-cleavable) (N); made in house; host or cells: High Five insect cells (Sec23a/24d, Sec13a/31a); E. coli BL21(DE3) (Sar1a); added to digitonin-permeabilized T-Rex-CHO-K1 cells
T3 sequence (O94855 whole entry): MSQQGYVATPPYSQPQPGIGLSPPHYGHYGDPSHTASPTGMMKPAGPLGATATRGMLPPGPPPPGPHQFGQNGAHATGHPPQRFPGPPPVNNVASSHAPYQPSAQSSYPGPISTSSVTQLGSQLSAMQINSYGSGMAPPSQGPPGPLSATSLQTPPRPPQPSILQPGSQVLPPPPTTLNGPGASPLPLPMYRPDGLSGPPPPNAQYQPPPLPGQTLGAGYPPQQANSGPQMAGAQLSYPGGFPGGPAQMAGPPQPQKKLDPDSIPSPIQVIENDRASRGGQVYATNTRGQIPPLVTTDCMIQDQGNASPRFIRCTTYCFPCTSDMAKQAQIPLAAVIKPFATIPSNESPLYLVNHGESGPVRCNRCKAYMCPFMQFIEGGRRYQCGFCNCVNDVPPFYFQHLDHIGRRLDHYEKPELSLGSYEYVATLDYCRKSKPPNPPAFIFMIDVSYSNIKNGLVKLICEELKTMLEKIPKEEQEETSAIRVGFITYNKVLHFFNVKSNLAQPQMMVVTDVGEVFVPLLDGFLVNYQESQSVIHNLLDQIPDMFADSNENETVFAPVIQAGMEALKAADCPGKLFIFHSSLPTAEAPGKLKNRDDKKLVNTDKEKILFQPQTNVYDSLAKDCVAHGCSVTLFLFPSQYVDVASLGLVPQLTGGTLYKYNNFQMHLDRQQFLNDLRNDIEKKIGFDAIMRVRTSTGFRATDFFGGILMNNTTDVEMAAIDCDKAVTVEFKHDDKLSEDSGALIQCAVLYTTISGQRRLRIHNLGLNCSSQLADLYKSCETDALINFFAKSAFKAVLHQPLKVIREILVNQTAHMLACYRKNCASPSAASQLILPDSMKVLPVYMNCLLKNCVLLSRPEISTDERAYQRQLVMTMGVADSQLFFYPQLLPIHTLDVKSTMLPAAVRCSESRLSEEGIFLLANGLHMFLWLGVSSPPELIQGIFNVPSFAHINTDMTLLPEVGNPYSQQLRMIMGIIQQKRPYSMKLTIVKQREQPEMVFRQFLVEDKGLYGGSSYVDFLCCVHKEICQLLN
T3 sequence (Q15436 whole entry partner): as the sequence (Q15436 whole entry partner, one chain of several) above
Protocol: In vitro COPII budding reactions used permeabilized cells prepared from the T-Rex-CHO-K1 parent line and from the clone that expresses mutant LDL receptor. Permeabilization was carried out as described ([Mancias and Goldberg, 2008]) with modifications. Two culture dishes (150 mm) of cells were prepared with cells at no greater than 60% confluence. Cells were washed with 20 ml PBS at 37°C and then trypsinized with 2 ml of Trypsin-EDTA (0.05%, Gibco) for 1 min at 37°C; 100 µl of Soybean Trypsin Inhibitor (2 mg/ml; Sigma) was added to each culture plate. To this was added 5.5 ml ice-cold KHM buffer (110 mM KOAc, 20 mM Hepes pH 7.2, 2 mM magnesium acetate) per plate, and cells were transferred to a 15 ml Falcon tube and pelleted gently (250 g for 3 min at 4°C). The supernatant was aspirated and the cells resuspended in 6 ml ice-cold KHM buffer. To permeabilize the cells, 6 µl digitonin stock solution (40 mg/ml in dimethyl sulfoxide) was added, cells were mixed by inversion and incubated on ice for 5 min. To terminate permeabilization, cells were diluted to 14 ml with KHM buffer and immediately pelleted at 250 g for 3 min at 4°C. […] The protein concentration was measured using protein assay kit (Bio-Rad) with BSA as standard; routinely, the measurement is in the range 4–5 mg/ml. […]

[3] = tested on: CHO cells (stressed, expressing G544V-mutant LDL receptor, and unstressed wild-type); test: Extracellular secretion of GRP94 from CHO cells; type: cell-based; settings: 24 hr at 37°C
Protocol: as §1

[4] = Cricetulus griseus, CHO, 2 h, read-out: EC50, acquisition of mutant LDL receptor glycosylation (restoration of trafficking), CHO cells expressing G544V-mutant LDL receptor, 2 hr at 37°C

For `O=C(O)CCc1ccccc1` [3-PPA, 3-phenylpropionate], the IC50 (human Sec24a) was 4.11 ± 0.34 mM and the EC50 [1, 4] was 7.48 ± 0.68 mM.
In the case of `O=C(O)CCCc1ccccc1` [4-PBA, 4-phenylbutyrate], the “binding to Sec24a in crystals (difference Fourier maps / residual electron density)” value (B site of Sec24a) is reported as “clear evidence for binding”, the IC50 (human Sec24a) is reported as 3.66 ± 0.22 mM and the “reduction in the packaging rate of p24 proteins and ERGIC-53 into COPII vesicles” value [2] is reported as 50%. For the same molecule, the “fraction of mutant LDL receptor with restored trafficking” value ([1]; 10 mM 4-PBA applied to cells) was ≤ 25%, the EC50 [1, 4] was 6.4 mM and the EC50 ([1]; read-out: EC50, acquisition of mutant LDL receptor glycosylation (restoration of trafficking), CHO cells expressing G544V-mutant LDL receptor, 2 hr at 37°C) was 6.37 ± 0.5 mM. The “cell lysis (GAPDH marker) and loss of GRP94 secretion” value ([3]; 45 mM 4-PBA) was “cell lysis is detected” and the “concentration giving maximal secretion of GRP94” value ([3]; stressed and unstressed cells) was 20 mM.
For `O=C(O)CCCc1ccc(O)cc1` [Hydroxy-PBA, 4-(4-hydroxyphenyl)butyrate], the IC50 (human Sec24a) was 5.04 ± 0.69 mM and the EC50 [1, 4] was 10.6 ± 0.4 mM.
`O=C(O)CCc1ccc(O)cc1` [Hydroxy-PPA, 3-(4-hydroxyphenyl)propionate] gave an IC50 (human Sec24a) of 9.22 ± 0.94 mM and an EC50 [1, 4] of 21.7 ± 1.03 mM.
In the case of `O=C(O)CCCCc1ccccc1` [5-PVA, 5-phenylvalerate], the IC50 (human Sec24a) is reported as 0.99 ± 0.08 mM and the EC50 [1, 4] is reported as 3.36 ± 0.42 mM.
Molecule `Cc1ccc(CCCC(=O)O)cc1` [Tolyl-BA, 4-(4-tolyl)butyrate] has an IC50 (human Sec24a) of 1.7 ± 0.16 mM and an EC50 [1, 4] of 4.89 ± 0.24 mM.
Work on `COc1ccc(CCCC(=O)O)cc1` [Methoxy-PBA, 4-(4-methoxyphenyl)butyrate] yielded an IC50 (human Sec24a) of 4.14 ± 0.7 mM and an EC50 [1, 4] of 8.63 ± 0.98 mM.
